Reference: article PMC11790914, “Chemogenomics for steroid hormone receptors (NR3)” (Communications Chemistry, 2025)
Where “and” joins values, the source holds several entries; their conditions need not be identical. Identical values can stand only once.

What was measured:
HEK293T cells [1] = assay: Cytotoxicity: apoptosis induction (caspase-3/7 DEVD fluorogenic DNA dye); settings: 1 µM; HEK293T, 24 h; apoptotic cell count normalized to 0.1% DMSO; single replicates
ABL1 = target: T1, ABL1 (Homo sapiens, UniProt P00519); assay: Liability panel screening by DSF: ABL1; assay type: binding; settings: DSF, 20 µM, n=2; read-out: Mean ΔTM ABL1
T1 construct: made in house
Procedure, shortened: (§1)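 ∆Tm in K was taken from Boltzmann-fitted unfolding inflection points, run in duplicate with a temperature ramp of 3 °C per minute up to 85 °C. Each recombinant protein (2 µM) was in HEPES 10 mM pH 7.5 and NaCl 500 mM, with SYPRO Orange dye at 1:1000.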

TRIM24 = target: T2, TRIM24 (Homo sapiens, UniProt O15164); assay: Liability panel screening by DSF: TRIM24; assay type: binding; settings: DSF, 20 µM, n=2; read-out: Mean ΔTM TRIM24
T2 construct: This panel comprised ten highly ligandable kinases and bromodomains; made in house
T2 sequence (O15164 899-1004 limits assumed): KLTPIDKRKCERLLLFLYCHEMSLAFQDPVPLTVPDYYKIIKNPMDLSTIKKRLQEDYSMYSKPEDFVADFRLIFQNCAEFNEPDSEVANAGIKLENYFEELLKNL
Procedure, shortened: as §1

[2] = tested on: NF-κB activity in HEK293 NF-κB reporter cells; assay: NF-kB activity assay (GFP reporter, ionomycin/PMA); assay type: cell-based; settings: for Mean NFκB response: n=3
Procedure, shortened: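 Reporter readout: GFP-expressing cells normalized to confluence, imaged every 90 min across 24 h after ionomycin (100 ng/mL)/PMA (10 ng/mL) stimulation of HEK293 cells pre-treated 4 h with compound (0.1% DMSO); triplicate independent experiments.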

FGFR3 = target: T3, FGFR3 (Homo sapiens, UniProt P22607); assay: Liability panel screening by DSF: FGFR3; assay type: binding; settings: DSF, 20 µM, n=2; read-out: Mean ΔTM FGFR3
T3 construct: made in house
Procedure, shortened: as §1

HEK293T cells [3] = assay: Cytotoxicity: necrosis induction (red fluorescent dye for permeable plasma membranes); assay type: cell-based; settings: 1 µM, 24 h, necrotic cell count normalized to 0.1% DMSO, single replicates;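 note: compounds applied in DMEM high glucose with 0.1% FCS and 0.1% DMSO, necrotic HEK293T cells counted by red staining of cells whose plasma membranes had become permeable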
Description: Cells were incubated with the test compounds at the indicated concentrations solubilized with 0.1% DMSO for 24 h. […] Necrotic cells were detected with a red fluorescent dye that labels cells with permeable plasma membranes after 24 h treatment and the necrotic cell count was normalized to 0.1% DMSO treated cells (n = 4). e NR family selectivity profiling of NR3 CG compound candidates in uniform Gal4-hybrid reporter gene assays for selected NR representing the NR1, NR2, NR4 and NR5 families.
HEK293T cells (German Collection of Microorganisms and Cell Culture GmbH, DSMZ; #ACC305) were cultured in DMEM high glucose, supplemented with 10% fetal calf serum (FCS), sodium pyruvate (1 mM), penicillin (100 µ/mL) and streptomycin (100 µg/mL) at 37 °C and 5% (v/v) CO2, and seeded in pre-coated (10 µg/mL collagen G solution (Merck KgaA; #L7213) for 30 min at 37 °C) 96-well plates (2 × 10^5 cells per well). After 24 h, the cells were treated with the respective NR3 CG compound candidate at the recommended concentration, bexarotene (100 µM) or doxorubicin (30 µM) as positive controls in DMEM high glucose supplemented with 0.1% FCS, penicillin (100 µ/mL), streptomycin (100 µg/mL) and 0.1% DMSO, or 0.1% DMSO alone as an untreated control. Each sample was prepared in at least four biologically independent replicates. […] Before drug administration, after the first medium exchange, 24 h after drug administration, and after fluorescence imaging cell confluence was assessed using the Tecan Spark Cyto, to account for changes in cell confluence due to drug administration and cell handling. Compound effects on cell confluence, apoptosis, metabolic activity and necrosis were normalized to the vehicle control of each biological replicate individually.

AURKA = target: T4, AURKA (Homo sapiens, UniProt O14965); assay: Liability panel screening by DSF: AURKA; assay type: binding; settings: DSF, 20 µM, n=2; read-out: Mean ΔTM AURKA
T4 construct: made in house
T4 sequence (O14965 1-403): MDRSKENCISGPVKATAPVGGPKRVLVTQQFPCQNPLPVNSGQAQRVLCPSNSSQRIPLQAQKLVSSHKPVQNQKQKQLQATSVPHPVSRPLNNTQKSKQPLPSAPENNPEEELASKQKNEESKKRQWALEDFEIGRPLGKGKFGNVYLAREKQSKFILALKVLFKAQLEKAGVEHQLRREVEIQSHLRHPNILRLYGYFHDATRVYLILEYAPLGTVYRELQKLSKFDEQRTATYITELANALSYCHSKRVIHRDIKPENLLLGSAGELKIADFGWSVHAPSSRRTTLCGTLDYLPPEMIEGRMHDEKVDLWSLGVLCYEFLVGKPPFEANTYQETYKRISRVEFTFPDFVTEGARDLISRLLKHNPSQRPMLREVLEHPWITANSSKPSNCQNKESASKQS
Procedure, shortened: as §1

BRD4 = target: T5, BRD4 (Homo sapiens, UniProt O60885); assay: Liability panel screening by DSF: BRD4; assay type: binding; settings: DSF, 20 µM, n=2; read-out: Mean ΔTM BRD4
T5 construct: This panel comprised ten highly ligandable kinases and bromodomains; made in house
Procedure, shortened: as §1

[4] = tested on: ATF6 activity in Hela ATF6 reporter cells; assay: Endoplasmic reticulum stress assay (ATF6 Renilla luciferase reporter, tunicamycin); assay type: cell-based; settings: Homo sapiens, HeLa, 1 µM, single replicates n=1 to n=5; read-out: ER stress [rel. ATF6 activity]
Procedure, shortened: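 ER stress was induced by 100 ng/mL tunicamycin added 4 h after compound (0.1% DMSO) to HeLa ATF6 reporter cells. After 18 h more, Renilla luciferase signal was read and expressed relative to DMSO control, n=5 biological replicates.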

MAPK1 = target: T6, MAPK1 (Homo sapiens, UniProt P28482); assay: Liability panel screening by DSF: MAPK1; assay type: binding; settings: DSF, 20 µM, n=2; read-out: Mean ΔTM MAPK1
T6 construct: made in house
Procedure, shortened: as §1

HEK293T cells [5] = assay: Cytotoxicity: metabolic activity (WST-8 / CCK-8 assay); settings: 1 µM; HEK293T, 24 h; WST-8; normalized to 0.1% DMSO; single replicates
Gal4-VP16 = assay type: cell-based; settings: 1 µM; vs. DMSO ctrl; single replicates n=1-3
CSNK1D = target: T7, CSNK1D (Homo sapiens, UniProt P48730); assay: Liability panel screening by DSF: CSNK1D; assay type: binding; settings: DSF, 20 µM, n=2; read-out: Mean ΔTM CSNK1D
T7 construct: made in house
Procedure, shortened: as §1

GSK3B = target: T8, GSK3B (Homo sapiens, UniProt P49841); assay: Liability panel screening by DSF: GSK3B; assay type: binding; settings: DSF, 20 µM, n=2; read-out: Mean ΔTM GSK3B
T8 construct: made in house

HEK293T cells [6] = assay: Cytotoxicity: growth-rate (change in confluence over 24 h); settings: 1 µM, normalized to 0.1% DMSO control, single replicates (n=1...)
BRPF1 = target: T9, BRPF1 (Homo sapiens, UniProt P55201); assay: Liability panel screening by DSF: BRPF1; assay type: binding; settings: DSF, 20 µM, n=2; read-out: Mean ΔTM BRPF1
T9 construct: This panel comprised ten highly ligandable kinases and bromodomains; made in house
T9 sequence (P55201 628-732 limits assumed): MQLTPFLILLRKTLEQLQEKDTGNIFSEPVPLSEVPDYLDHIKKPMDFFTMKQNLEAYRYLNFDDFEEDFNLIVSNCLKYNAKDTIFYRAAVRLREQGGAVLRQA
Procedure, shortened: as §1

NR3C4 (AR) = settings: read-out: Potency [nM] IC50, NR3C4 (AR); cited from earlier work
CDK2 = target: T10, CDK2 (Homo sapiens, UniProt P24941); assay: Liability panel screening by DSF: CDK2; assay type: binding; settings: DSF, 20 µM, n=2; read-out: Mean ΔTM CDK2
T10 construct: made in house
Procedure, shortened: as §1

T6 sequence (P28482 whole entry, species assumed): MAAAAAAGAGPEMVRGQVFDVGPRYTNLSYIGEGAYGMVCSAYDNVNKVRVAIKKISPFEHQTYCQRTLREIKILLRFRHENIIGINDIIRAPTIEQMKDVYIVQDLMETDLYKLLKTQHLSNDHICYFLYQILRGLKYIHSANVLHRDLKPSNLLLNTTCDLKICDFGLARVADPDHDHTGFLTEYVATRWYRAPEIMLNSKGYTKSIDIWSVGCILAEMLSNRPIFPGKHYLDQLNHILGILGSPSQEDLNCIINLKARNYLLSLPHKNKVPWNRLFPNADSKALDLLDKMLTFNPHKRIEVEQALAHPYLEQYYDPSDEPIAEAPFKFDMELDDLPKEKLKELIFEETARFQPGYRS
T3 sequence (P22607 23-806, species assumed): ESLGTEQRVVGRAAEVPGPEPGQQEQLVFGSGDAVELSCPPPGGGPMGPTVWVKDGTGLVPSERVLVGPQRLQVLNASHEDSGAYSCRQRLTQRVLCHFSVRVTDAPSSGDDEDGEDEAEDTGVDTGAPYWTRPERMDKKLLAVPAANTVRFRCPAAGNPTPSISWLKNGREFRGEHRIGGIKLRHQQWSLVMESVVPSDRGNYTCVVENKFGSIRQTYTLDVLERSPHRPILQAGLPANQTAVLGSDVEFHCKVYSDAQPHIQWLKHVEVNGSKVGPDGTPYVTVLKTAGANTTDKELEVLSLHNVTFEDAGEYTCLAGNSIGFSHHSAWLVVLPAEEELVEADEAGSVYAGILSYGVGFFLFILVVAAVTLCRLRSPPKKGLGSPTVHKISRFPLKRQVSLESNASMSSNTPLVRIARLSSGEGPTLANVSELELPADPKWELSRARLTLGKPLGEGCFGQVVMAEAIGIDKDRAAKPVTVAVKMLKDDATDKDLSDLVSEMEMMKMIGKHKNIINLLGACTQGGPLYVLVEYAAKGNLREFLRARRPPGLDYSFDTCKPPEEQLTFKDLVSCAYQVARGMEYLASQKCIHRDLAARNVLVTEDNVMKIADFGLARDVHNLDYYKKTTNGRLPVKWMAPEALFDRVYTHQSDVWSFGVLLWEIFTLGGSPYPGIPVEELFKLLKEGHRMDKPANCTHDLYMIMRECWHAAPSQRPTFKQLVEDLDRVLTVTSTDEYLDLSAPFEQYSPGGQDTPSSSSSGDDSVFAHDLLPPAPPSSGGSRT
T1 sequence (P00519 whole entry, species assumed): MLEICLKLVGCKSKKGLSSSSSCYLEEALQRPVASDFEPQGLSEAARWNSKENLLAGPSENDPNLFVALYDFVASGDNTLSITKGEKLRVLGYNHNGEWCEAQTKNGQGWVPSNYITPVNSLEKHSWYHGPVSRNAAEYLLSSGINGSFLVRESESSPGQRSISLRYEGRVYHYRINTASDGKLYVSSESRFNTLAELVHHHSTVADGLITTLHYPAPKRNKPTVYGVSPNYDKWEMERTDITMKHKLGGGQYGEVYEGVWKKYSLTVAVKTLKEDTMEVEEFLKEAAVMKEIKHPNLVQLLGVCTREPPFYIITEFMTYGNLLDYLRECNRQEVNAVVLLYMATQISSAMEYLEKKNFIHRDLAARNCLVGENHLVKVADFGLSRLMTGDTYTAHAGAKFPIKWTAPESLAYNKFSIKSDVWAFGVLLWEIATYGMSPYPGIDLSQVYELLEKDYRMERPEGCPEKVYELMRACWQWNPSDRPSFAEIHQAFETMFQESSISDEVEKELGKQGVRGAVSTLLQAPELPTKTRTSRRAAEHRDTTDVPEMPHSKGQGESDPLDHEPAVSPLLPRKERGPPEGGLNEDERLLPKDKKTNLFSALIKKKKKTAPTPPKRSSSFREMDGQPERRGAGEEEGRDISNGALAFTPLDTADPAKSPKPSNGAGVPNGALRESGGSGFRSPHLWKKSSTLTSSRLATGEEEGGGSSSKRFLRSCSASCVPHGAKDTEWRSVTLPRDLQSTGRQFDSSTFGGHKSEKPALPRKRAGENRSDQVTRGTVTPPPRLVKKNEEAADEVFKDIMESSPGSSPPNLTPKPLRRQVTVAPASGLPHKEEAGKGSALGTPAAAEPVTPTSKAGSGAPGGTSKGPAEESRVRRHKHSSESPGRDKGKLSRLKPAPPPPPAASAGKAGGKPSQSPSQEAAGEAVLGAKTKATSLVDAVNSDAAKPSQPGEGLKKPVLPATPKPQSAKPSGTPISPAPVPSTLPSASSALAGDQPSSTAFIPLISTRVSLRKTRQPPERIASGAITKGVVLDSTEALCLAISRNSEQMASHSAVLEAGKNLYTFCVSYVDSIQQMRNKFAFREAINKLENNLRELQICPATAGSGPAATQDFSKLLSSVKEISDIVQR
T7 sequence (P48730 whole entry, species assumed): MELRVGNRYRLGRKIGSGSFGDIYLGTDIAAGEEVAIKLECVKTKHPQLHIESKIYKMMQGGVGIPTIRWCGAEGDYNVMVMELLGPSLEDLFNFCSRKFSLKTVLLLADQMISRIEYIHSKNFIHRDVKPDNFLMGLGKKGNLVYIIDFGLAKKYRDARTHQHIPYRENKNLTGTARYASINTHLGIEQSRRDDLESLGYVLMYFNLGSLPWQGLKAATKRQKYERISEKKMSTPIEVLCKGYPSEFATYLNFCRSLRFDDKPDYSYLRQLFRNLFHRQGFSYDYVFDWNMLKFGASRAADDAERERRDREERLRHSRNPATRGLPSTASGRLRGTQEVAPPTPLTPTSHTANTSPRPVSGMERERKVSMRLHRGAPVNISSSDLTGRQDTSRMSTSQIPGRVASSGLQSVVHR
T8 sequence (P49841 whole entry, species assumed): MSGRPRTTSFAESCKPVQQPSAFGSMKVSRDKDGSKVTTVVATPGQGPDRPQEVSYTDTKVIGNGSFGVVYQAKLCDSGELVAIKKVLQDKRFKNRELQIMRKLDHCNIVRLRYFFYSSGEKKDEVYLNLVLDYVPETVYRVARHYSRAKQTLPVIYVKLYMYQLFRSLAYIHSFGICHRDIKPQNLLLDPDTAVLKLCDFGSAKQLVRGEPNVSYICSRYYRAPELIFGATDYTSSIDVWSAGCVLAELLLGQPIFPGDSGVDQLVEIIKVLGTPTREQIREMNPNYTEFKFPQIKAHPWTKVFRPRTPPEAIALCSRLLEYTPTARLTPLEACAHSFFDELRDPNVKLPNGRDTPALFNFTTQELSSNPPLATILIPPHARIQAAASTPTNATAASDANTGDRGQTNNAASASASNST

For `N#Cc1ccc([C@H]2CCCC[C@H]2O)cc1C(F)(F)F` [PF-998425], the “Apoptosis induction [AI]” value (HEK293T cells [1]) was 1.04 and 1.14 and 1.23 and 0.96 and 0.64 and 1.74, the ΔTm at 20 µM (ABL1) was 0.55 °C and the ΔTm at 20 µM (TRIM24) was -1.04 °C. For the same molecule, the “Mean NFκB response” value ([2]; 1 µM, 1,5 h) was 2870.31 GFP+-cells/confluence ∙ 1000, the “Mean NFκB response” value ([2]; 1 µM, 4,5 h) was 3725.32 GFP+-cells/confluence ∙ 1000 and the “Mean NFκB response” value ([2]; 1 µM, 7,5 h) was 8899.00 GFP+-cells/confluence ∙ 1000. For the same molecule, the “Mean NFκB response” value ([2]; 1 µM, 10,5 h) was 17651.00 GFP+-cells/confluence ∙ 1000, the “Mean NFκB response” value ([2]; 1 µM, 13,5 h) was 24472.33 GFP+-cells/confluence ∙ 1000 and the “Mean NFκB response” value ([2]; 1 µM, 16,6 h) was 29696.67 GFP+-cells/confluence ∙ 1000. The “Mean NFκB response” value ([2]; 1 µM, 19,5 h) was 33323.33 GFP+-cells/confluence ∙ 1000, the “Mean NFκB response” value ([2]; 1 µM, 22,5 h) was 35466.67 GFP+-cells/confluence ∙ 1000 and the “Mean NFκB response” value ([2]; 1 µM, 3 h) was 3247.46 GFP+-cells/confluence ∙ 1000. For the same molecule, the “Mean NFκB response” value ([2]; 1 µM, 6 h) was 5028.67 GFP+-cells/confluence ∙ 1000, the “Mean NFκB response” value ([2]; 1 µM, 9 h) was 13977.00 GFP+-cells/confluence ∙ 1000 and the “Mean NFκB response” value ([2]; 1 µM, 12 h) was 20998.00 GFP+-cells/confluence ∙ 1000. For the same molecule, the “Mean NFκB response” value ([2]; 1 µM, 15 h) was 27073.33 GFP+-cells/confluence ∙ 1000, the “Mean NFκB response” value ([2]; 1 µM, 18 h) was 31376.67 GFP+-cells/confluence ∙ 1000 and the “Mean NFκB response” value ([2]; 1 µM, 21 h) was 34843.33 GFP+-cells/confluence ∙ 1000. For the same molecule, the “Mean NFκB response” value ([2]; 1 µM, 24 h) was 36873.33 GFP+-cells/confluence ∙ 1000, the “NF-κB activity (inflammatory response to ionomycin/PMA)” value ([2]; HEK293 NF-κB reporter cells, compounds at recommended concentrations, imaged over 24 h, n = 3) was “tended to enhance NF-κB activity” and the ΔTm at 20 µM (FGFR3) was -0.09 °C. The “Necrosis induction [NI]” value (HEK293T cells [3]) was 0.87 and 1.08 and 0.88 and 1.00, the ΔTm at 20 µM (AURKA) was -1.09 °C and the ΔTm at 20 µM (BRD4) was -1.51 °C. The activity at 1 µM [4] was 87%, the ΔTm at 20 µM (MAPK1) was -0.24 °C and the “Metabolic activity [MA]” value (HEK293T cells [5]) was 1.03 and 0.98 (3×) and 1.06 and 0.99 and 1.07 and 1.00. The “VP16 control [fold reporter gene activity]” value (Gal4-VP16) was 1.26 fold reporter gene activity and 1.19 fold reporter gene activity and 1.03 fold reporter gene activity, the ΔTm at 20 µM (CSNK1D) was 0.3 °C and the ΔTm at 20 µM (GSK3B) was -0.43 °C. The “Growth rate [GR]” value (HEK293T cells [6]) was 0.92 and 1.38 and 1.07 and 1.15 and 0.96 and 0.86 and 0.80 and 0.57 and 1.49 and 3.80, the ΔTm at 20 µM (BRPF1) was -0.66 °C and the IC50 (NR3C4 (AR)) was 43 ± 12 nM. The ΔTm at 20 µM (CDK2) was 0.11 °C.
